Results on 14 molecules are retold here after patent publication US20250179073A1, “TRICYCLIC HETEROCYCLE COMPOUNDS AS IAP ANTAGONISTS” (Ascentage Pharma (Suzhou) Co., Ltd., priority 2022, published 2025).

As usually defined, the pIC50 is the IC50 on a negative log10 scale, so that one unit is a factor of ten.

For test [1], the system named is MDA-MB-231 cells. The experiment in a line: Cell proliferation assay (CellTiter-Glo), MDA-MB-231. The test is classed as cell-based. The note with it: Homo sapiens, MDA-MB-231, 72 h, 72 h treatment, Celltiter-Glo luminescence. In outline: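 Compounds tested over ten concentrations ([…]) for 72 h on EVSA-T cells in MEM/10% FBS and MDA-MB-231 cells in RPMI-1640/10% FBS, seeded at 10000/well. Luminescent CellTiter-Glo readout; IC50 fitted after normalisation to controls.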
Background: ATP-based viability assays read luminescence as a measure of living cells.

For test [2], the system named is EVSA-T cells. The experiment in a line: Cell proliferation assay (CellTiter-Glo), EVSA-T. In kind it is cell-based. To be noted: Homo sapiens, EVSA-T, 72 h, 72 h treatment, Celltiter-Glo luminescence. On the procedure:
Example 238: Cell Proliferation Assay
MDA-MB-231 and EVSA-T cells (10000 cells/well) were plated onto 96-well plates (Corning, Cat #3917) in 95 μL of medium (RPMI-1640 containing 10% FBS and MEM containing 10% FBS, respectively). Compounds with various concentrations ([…]) were added to the wells. After treatment for 72 h, 30 μL of Celltiter-Glo reagent (Promega, Cat #G7573) was added and incubated at room temperature for 15 min, then the luminescent signal was determined using a microplate reader (Biotek, SynergyH1). The inhibitor dose-response curves were analyzed using normalized IC50 regression curve fitting with control based normalization.

pIC50: −log10 of the molar value.

For the molecule `COc1cc(F)ccc1Cc1cc2c(n3ncnc13)C(C)(C)CN2C(=O)CN1C[C@@H](C)NC[C@@H]1CN1CCOC[C@H]1C` [Compound 41, 1-(4-(4-fluoro-2-methoxybenzyl)-8,8-dimethyl-7,8-dihydro-6H-pyrrolo[2,3-e][1,2,4]triazolo[1,5-a]pyridin-6-yl)-2-((2R,5R)-5-methyl-2-(((R)-3-methylmorpholino)methyl)piperazin-1-yl)ethan-1-one], the negative-log IC50 (pIC50) in test [1] is 7.11; in test [2] it was 7.85.
With `C[C@@H]1CN(CC(=O)N2CC(C)(C)c3c2cc(Cc2ccc(F)cc2O)c2ncnn32)[C@@H](CN2CCOC[C@H]2C)CN1` [Compound 42, 1-(4-(4-fluoro-2-hydroxybenzyl)-8,8-dimethyl-7,8-dihydro-6H-pyrrolo[2,3-e][1,2,4]triazolo[1,5-a]pyridin-6-yl)-2-((2R,5R)-5-methyl-2-(((R)-3-methylmorpholino)methyl)piperazin-1-yl)ethan-1-one], the pIC50 in test [1] is 7.00; in test [2], 7.89.
`C[C@@H]1CN(CC(=O)N2CC(C)(C)c3c2cc(Cc2ccc(Cl)cc2)c2ncnn32)[C@@H](CN2CCOC[C@H]2C)CN1` [Compound 44, 1-(4-(4-chlorobenzyl)-8,8-dimethyl-7,8-dihydro-6H-pyrrolo[2,3-e][1,2,4]triazolo[1,5-a]pyridin-6-yl)-2-((2R,5R)-5-methyl-2-(((R)-3-methylmorpholino)methyl)piperazin-1-yl)ethan-1-one]: the pIC50 in test [1] is 7.12; in test [2], 8.05.
`CC(c1ccc(F)cc1)c1cc2c(n3ncnc13)C(C)(C)CN2C(=O)CN1C[C@@H](C)NC[C@@H]1CN1CCOC[C@H]1C` (stereo partly drawn) [Compound 45, 1-(4-(1-(4-fluorophenyl)ethyl)-8,8-dimethyl-7,8-dihydro-6H-pyrrolo[2,3-e][1,2,4]triazolo[1,5-a]pyridin-6-yl)-2-((2R,5R)-5-methyl-2-(((R)-3-methylmorpholino)methyl)piperazin-1-yl)ethan-1-one]: the figures for the pIC50 in test [1] and in test [2] were 6.74 and 7.40, respectively.
In the case of `C[C@@H]1CN(CC(=O)N2CC(C)(C)c3c2cc(Sc2ccc(F)cc2)c2ncnn32)[C@@H](CN2CCOC[C@H]2C)CN1` [Compound 49, 1-(4-((4-fluorophenyl)thio)-8,8-dimethyl-7,8-dihydro-6H-pyrrolo[2,3-e][1,2,4]triazolo[1,5-a]pyridin-6-yl)-2-((2R,5R)-5-methyl-2-(((R)-3-methylmorpholino)methyl)piperazin-1-yl)ethan-1-one], the results for the pIC50 in test [1] and in test [2] were 7.52 and 8.30, respectively.
For the molecule `C[C@@H]1CN(CC(=O)N2CC(C)(C)c3c2cc(C(F)(F)CC2CC2)c2ncnn32)[C@@H](CN2CCOC[C@H]2C)CN1` [Compound 53, 1-(4-(2-cyclopropyl-1,1-difluoroethyl)-8,8-dimethyl-7,8-dihydro-6H-pyrrolo[2,3-e][1,2,4]triazolo[1,5-a]pyridin-6-yl)-2-((2R,5R)-5-methyl-2-(((R)-3-methylmorpholino)methyl)piperazin-1-yl)ethan-1-one], the figures for the pIC50 in test [1] and in test [2] were 6.89 and 7.22, respectively.
The matching figures for `C[C@@H]1CN(CC(=O)N2CC3(CC3)c3c2cc(Cc2ccc(F)cc2)c2ncnn32)[C@@H](CN2CCOC[C@H]2C)CN1` [Compound 56, 1-(4′-(4-fluorobenzyl)spiro[cyclopropane-1,8′-pyrrolo[2,3-e][1,2,4]triazolo [1,5-a]pyridin]-6′(7′H)-yl)-2-((2R,5R)-5-methyl-2-(((R)-3-methylmorpholino)methyl)piperazin-1-yl)ethan-1-one]: 7.46 and 8.05.
Regarding `C[C@@H]1CN(CC(=O)N2CC(C)(C)c3c2cc(Cc2ccc(F)cc2)c2ncnn32)[C@@H](CN2CCN(CC(F)(F)F)C[C@H]2C)CN1` [Compound 63, 1-(4-(4-fluorobenzyl)-8,8-dimethyl-7,8-dihydro-6H-pyrrolo[2,3-e][1,2,4]triazolo[1,5-a]pyridin-6-yl)-2-((2R,5R)-5-methyl-2-(((R)-2-methyl-4-(2,2,2-trifluoroethyl)piperazin-1-yl)methyl)piperazin-1-yl)ethan-1-one], the results for the negative-log IC50 (pIC50) in test [1] and in test [2] were 7.55 and 8.52, respectively.
The matching figures for `C[C@@H]1CN(CC(=O)N2CC(C)(C)c3c2cc(Cc2ccc(F)cc2)c2ncnn32)[C@@H](CN2CCC(C)(O)C[C@H]2C)CN1` (stereo partly drawn) [Compound 77, 1-(4-(4-fluorobenzyl)-8,8-dimethyl-7,8-dihydro-6H-pyrrolo[2,3-e][1,2,4]triazolo[1,5-a]pyridin-6-yl)-2-((2R,5R)-2-(((2R)-4-hydroxy-2,4-dimethylpiperidin-1-yl)methyl)-5-methylpiperazin-1-yl)ethan-1-one]: 7.15 and 8.30.
For `C[C@@H]1CN(CC(=O)N2CC(C)(C)c3c2cc(Cc2ccc(F)cc2)c2ncnn32)[C@@H](CN2Cc3ccccc3C2=O)CN1` [Compound 94, 2-(((2R,5R)-1-(2-(4-(4-fluorobenzyl)-8,8-dimethyl-7,8-dihydro-6H-pyrrolo[2,3-e][1,2,4]triazolo[1,5-a]pyridin-6-yl)-2-oxoethyl)-5-methylpiperazin-2-yl)methyl)isoindolin-1-one], the pIC50 in test [1] is 7.59; in test [2] it was 8.40.
In the case of `C[C@@H]1CN(CC(=O)N2CC(C)(C)c3c2cc(Cc2ccc(F)cc2)c2ncnn32)[C@@H](CN2Cc3ncccc3C2=O)CN1` [Compound 95, 6-(((2R,5R)-1-(2-(4-(4-fluorobenzyl)-8,8-dimethyl-7,8-dihydro-6H-pyrrolo[2,3-e][1,2,4]triazolo[1,5-a]pyridin-6-yl)-2-oxoethyl)-5-methylpiperazin-2-yl)methyl)-6,7-dihydro-5H-pyrrolo[3,4-b]pyridin-5-one], the negative logarithm of the IC50 (pIC50) in test [1] was 7.92; in test [2], 9.40.
Turning to `C[C@@H]1CN(CC(=O)N2CC(C)(C)c3c2cc(Cc2ccc(F)cc2)c2ncnn32)[C@@H](CN2Cc3cnccc3C2=O)CN1` [Compound 96, 2-(((2R,5R)-1-(2-(4-(4-fluorobenzyl)-8,8-dimethyl-7,8-dihydro-6H-pyrrolo[2,3-e][1,2,4]triazolo[1,5-a]pyridin-6-yl)-2-oxoethyl)-5-methylpiperazin-2-yl)methyl)-2,3-dihydro-1H-pyrrolo[3,4-c]pyridin-1-one], the figures for the negative-log IC50 (pIC50) in test [1] and in test [2] were 7.28 and 8.30, respectively.
The like results for `C[C@@H]1CN(CC(=O)N2CC(C)(C)c3c2cc(Cc2ccc(F)cc2)c2ncnn32)[C@@H](CN2Cc3ccncc3C2=O)CN1` [Compound 97, 2-(((2R,5R)-1-(2-(4-(4-fluorobenzyl)-8,8-dimethyl-7,8-dihydro-6H-pyrrolo[2,3-e][1,2,4]triazolo[1,5-a]pyridin-6-yl)-2-oxoethyl)-5-methylpiperazin-2-yl)methyl)-1,2-dihydro-3H-pyrrolo[3,4-c]pyridin-3-one] were, in that order, 7.33 and 8.52.
Consider `C[C@@H]1CN(CC(=O)N2CC(C)(C)c3c2cc(Cc2ccc(F)cc2)c2ncnn32)[C@@H](CN2Cc3cccnc3C2=O)CN1` [Compound 98, 6-(((2R,5R)-1-(2-(4-(4-fluorobenzyl)-8,8-dimethyl-7,8-dihydro-6H-pyrrolo[2,3-e][1,2,4]triazolo[1,5-a]pyridin-6-yl)-2-oxoethyl)-5-methylpiperazin-2-yl)methyl)-5,6-dihydro-7H-pyrrolo[3,4-b]pyridin-7-one], for which the pIC50 is 7.14 in test [1] and 8.10 in test [2].
